{"source": "patent US7268118B2", "about": "“Thymosin β4 compositions” (United States of America as represented by The Secretary of …, priority 1998, dated 2007)", "key": {"[1]": {"tested_on": "Corneal Epithelial Cell", "experiment": "Corneal epithelial cell migration assay in Boyden chamber", "type": "cell-based", "procedure": "Corneal Epithelial Cell migration assays were carried out in Boyden chamber using 12 μm pore polyester membranes (Poretics, Livermore, Calif.) coated with a 0.1 mg/ml solution of collagen IV in dH2O (Trevigen, Gaithersburg, Md.). Filters were then dried at least 1 h. Cells were cultured and resuspended in Eagle's Minimal Essential Medium with 0.05 mM Ca^2+. The bottom chamber was loaded with EMEM containing 0.01, 0.1, 10, 100, and 1000 ng/ml of synthetic Tβ4. Conditioned medium from primary dermal fibroblasts and/or keratinocyte growth factor was added to several wells as a positive control. Cells were added to the upper chamber at a concentration of 50,000 cells per well. Chambers were incubated at 35 C/7% CO2 for 4-5 hours and the filters were then fixed and stained using Diff-Quik (Baxter Healthcare Corporation, McGraw Park, Ill.). The cells that migrated through the filter were quantitated by counting the center of each well at 10× using an Olympus CK2 microscope. Each condition was assayed in triplicate wells and each experiment was repeated four times with different preparations of cells. […] Migration was enhanced 2-3 fold over migration in the presence of media alone (FIG. 7) with the highest level of migration seen at 100 ng/ml of Tβ4."}, "[2]": {"tested_on": "full thickness cutaneous rat wound", "experiment": "Full thickness punch biopsy wound healing in rats", "type": "in vivo", "details": "for decrease in wound width relative to saline treated controls: intraperitoneal 60 μg in 300 μl", "procedure": "Full thickness 8 mm punch biopsy wounds were made on the dorsal surface of rats as previously reported (Bhartiya et al., J. Cell. Physiol. 150:312, 1992; Sihhu et al., J. Cell. Physiol. 169:108, 1996) and Tβ4 was given topically at the time of wounding (5 μg in 50 μl) and again after 48 hours. Controls for the topical treatment received identical amounts of saline at the time of wounding and at 48 hours. Additional rats received intraperitoneal injections at the time of wounding (60 μg in 300 μl) and again every other day (e.g., days 0, 2, 4, and 6). Controls for these animals received identical amounts of saline intra-peritoneally on the same injection schedule. On days 4 and 7 post-wounding, measurements were made on the wound size. At days 8 and 9 post-wounding, tissue was collected and fixed in 10% buffered formalin. The samples were sectioned and stained with H&E and Masson's Trichrome (American Histolabs, Gaithersburg, Md.).\nHistological sections were used to measure the re-epithelialization and the contraction of the wound using an ocular micrometer. Epidermal migration was determined by measuring the lengths of the tongues of epithelium migrating form either side of the wound over the wound bed from the zone of proliferation at the margin of the uninjured and wounded skin. Epidermal thickness was also measured beginning at the junction of the uninjured and proliferating epidermis. The thickness was measured vertically from the basement membrane to the most superficial layer of the migrating epidermis at every 200 microns. The mean epidermal thickness of each migrating tongue of epidermis was then computed from each wound. Vessel counts were performed by first identifying vascular spaces by their endothelial lining. All such vessels in the wound bed were counted including those at the junction of the dermis and the subcutis, since angiogenesis into the wounds occurs to a great extent from these vessels. The numbers were averaged into vessel counts per 10 high powered fields (40×).\nThe effect of Tβ4 on wound healing was studied in a full thickness cutaneous rat wound model. […] This model allowed measurement of two parameters: the re-epithelialization (gap) and the contraction (width) of the wound."}, "[3]": {"tested_on": "primary keratinocytes", "experiment": "Keratinocyte migration assay in Boyden chamber", "type": "cell-based, mice", "procedure": "Primary keratinocytes were prepared from either Balb/c or CD-1 newborn mice as described previously (Dlugosz et al., 1995). Cells were plated in calcium- and magnesium-free Eagle's Minimal Essential Medium (EMEM) containing 8% fetal calf serum treated with 8% Chelex (Bio-Rad Laboratories, Hercules, Calif.), 20 units/ml penicillin-streptomycin, and the calcium concentration was adjusted to 0.25 mM. The following day, cultures were washed with calcium- and magnesium-free phosphate buffered saline, treated briefly with Trypsin (Life Technologies, Gaithersburg, Md.), washed with culture medium and resuspended in EMEM containing 0.05 mM calcium. Cells were used immediately in migration assays.\nKeratinocyte migration assays were carried out in Boyden chamber using 12 μm pore polyester membranes (Poretics, Livermore, Calif.) coated with a 0.1 mg/ml solution of collagen IV in dH2O (Trevigen, Gaithersburg, Md.). Filters were then dried at least 1 h. Cells were harvested using Versene or Trypsin (Life Technologies, Gaithersburg, Md.) and resuspended in Eagle's minimal essential medium with 0.05 mM Ca^2+. The bottom chamber was loaded with EMEM containing 0.01, 0.1, 10, 100, and 1000 ng/ml of synthetic Tβ4. […] The cells that migrated through the filter were quantitated by counting the center of each well at 10× using an Olympus CK2 microscope. […]"}, "[4]": {"tested_on": "wounds of steroid treated rats", "experiment": "Impaired healing model (hydrocortisone treated rats)", "type": "in vivo, rat", "procedure": "Steroid treatment reduces the rate of wound repair in mammals. Rats treated with steroids such as hydrocortisone serve as a model of impaired wound healing due to the delay observed in wound closure. Animals were injected intramuscularly everyday with hydrocortisone."}, "[5]": {"tested_on": "de-epithelialized Rat corneas", "experiment": "In vivo corneal re-epithelialization", "procedure": "To determine the effect of Tβ4 on corneal re-epithelialization in vivo, Rat corneas were de-epithelialized and treated with Tβ4. Filters were soaked in heptanol, applied to the eye for 30 seconds, and then the epithelium was scraped. Various concentration of Tβ4 in saline was applied to the eye and at 24 hours the rats were sacrificed. The eyes were fixed, sectioned and the degree of corneal epithelial migration (as measured in pixels) was determined using a microscope with an internal caliper by a masked observer."}, "[6]": {"details": "intraperitoneal injection, day 4"}, "[7]": {"details": "intraperitoneal injection, day 7"}}, "data": [{"substance": "thymosin β4 [Tβ4]", "values": [{"measurement": "corneal epithelial cell migration over media alone", "setting": "[1]; 4-5 hours of exposure", "value": "2-3 fold"}, {"measurement": "concentration with the highest level of migration", "setting": "[1]; tested 0.01-1000 ng/ml", "value": 100, "unit": "ng/mL"}, {"measurement": "increase in the number of vessels in treated wounds", "setting": "[2]; 7 day wounds", "value": "about 2 fold"}, {"measurement": "decrease in wound width as compared to the saline controls", "setting": "[2]; FIG. 2, topical 5 μg in 50 μl, as early as 4 days after wounding, continued until day 7", "value": 15, "unit": "%"}, {"measurement": "Epidermal Migration", "setting": "[2]; I.P.", "value": "3168.3 ± 38.4", "unit": "μm"}, {"measurement": "Epidermal Thickness", "setting": "[2]; I.P.", "value": "135.0 ± 11.7", "unit": "μm"}, {"measurement": "Vessels/10 HPF", "setting": "[2]; I.P.", "value": "2415.0 ± 24.3"}, {"measurement": "Epidermal Migration", "setting": "[2]; Topical", "value": "3668.7 ± 56.6", "unit": "μm"}, {"measurement": "Epidermal Thickness", "setting": "[2]; Topical", "value": "142.3 ± 19.8", "unit": "μm"}, {"measurement": "Vessels/10 HPF", "setting": "[2]; Topical", "value": "2186.0 ± 11.8"}, {"measurement": "re-epithelialization of the wound (histology)", "setting": "[2]; day 7, intraperitoneal 60 μg/300 μl on alternate days", "value": "Increased re-epithelialization"}, {"measurement": "neovascularization of the dermis (histology)", "setting": "[2]; day 7, intraperitoneal and topical", "value": "significant new capillaries"}, {"measurement": "re-epithelialization of the wound (histology)", "setting": "[2]; day 7, topical 5 μg/50 μl", "value": "complete reepithelialization"}, {"measurement": "thickness of the migrating epidermis versus control", "setting": "[2]; either Tβ4 treatment (I.P., topical)", "value": "no difference"}, {"measurement": "effect on wound healing at lower dose", "setting": "[2]; intraperitoneal 6 μg in 300 μl", "value": "no effect"}, {"measurement": "effect on wound healing at lower dose", "setting": "[2]; intraperitoneal 30 μg in 300 μl", "value": "reduced"}, {"measurement": "decrease in wound width relative to saline treated controls", "setting": "[2]; day 4", "value": 18, "unit": "%"}, {"measurement": "decrease in wound width relative to saline treated controls", "setting": "[2]; day 7", "value": 11, "unit": "%"}, {"measurement": "decrease in gap size relative to saline treated controls", "setting": "[2]; intraperitoneal, 4th day post wounding", "value": 42, "unit": "%"}, {"measurement": "migration of epidermal tongues as compared to controls", "setting": "[2]; intraperitoneally treated wounds", "value": "statistically significant increase"}, {"measurement": "number of macrophages in the wounds", "setting": "[2]; rat, in vivo", "value": "No increases"}, {"measurement": "effect on wound healing at lower dose", "setting": "[2]; topical 0.5 μg in 50 μl", "value": "no effect"}, {"measurement": "effect on wound healing at lower dose", "setting": "[2]; topical 2.5 μg in 50 μl", "value": "reduced"}, {"measurement": "wound healing as compared to untreated wounds", "setting": "[2]; topical or intraperitoneal", "value": "significantly accelerated wound healing"}, {"measurement": "increase in migration of epidermal tongues over the wound bed", "setting": "[2]; topical treatment", "value": 1.5, "unit": "fold"}, {"measurement": "decrease in gap length as compared to saline controls", "setting": "[2]; topical, 4 days after wounding", "value": 18, "unit": "%"}, {"measurement": "decrease in width, treated versus controls", "setting": "[2]; topical, time not stated (FIG. 2)", "value": "about 15%"}, {"measurement": "decrease in gap, treated versus controls", "setting": "[2]; topical, time not stated (FIG. 3)", "value": "about 15%"}, {"measurement": "decrease in gap size", "setting": "[2]; wounds treated for 7 days, route not stated", "value": 62, "unit": "%"}, {"measurement": "migration at the maximal responding dose versus positive control", "setting": "[3]", "value": "exceeded the positive control"}, {"measurement": "keratinocyte migration over media alone", "setting": "[3]; 4-5 hours, filters coated with collagen IV", "value": "2-3 fold"}, {"measurement": "decrease in gap size", "setting": "[4]; [6]", "value": 28, "unit": "%"}, {"measurement": "decrease in wound width", "setting": "[4]; [6]", "value": 14, "unit": "%"}, {"measurement": "decrease in gap size", "setting": "[4]; [7]", "value": 26, "unit": "%"}, {"measurement": "decrease in wound width", "setting": "[4]; [7]", "value": 10, "unit": "%"}, {"measurement": "level of healing in steroid treated rats", "setting": "[4]; topical or intraperitoneal", "value": "significant increase in the level of healing"}, {"measurement": "gap or width closure compared to saline treatment", "setting": "[4]; topical, day 4, N=3", "value": "≤ 7", "unit": "%"}, {"measurement": "decrease in gap compared to saline treatment", "setting": "[4]; topical, day 7", "value": 39, "unit": "%"}, {"measurement": "decrease in wound width", "setting": "[4]; topical, day 7", "value": 23, "unit": "%"}, {"measurement": "re-epithelialization of the cornea over untreated control", "setting": "[5]; about 1 to 25 μg of Tβ4 in saline applied to the eye, 24 hours", "value": 2, "unit": "fold"}, {"measurement": "inflammation of treated eyes compared to non-treated corneas", "setting": "[5]; rat, in vivo", "value": "reduced inflammation"}]}]}
